The subject of one data set is Male CD-1 mice. As to the kind of experiment: Biological Example 2: psychostimulant (amphetamine)-induced hyperactivity in mice. Particulars: for Locomotor activity (beam crosses): over 60 minutes, mean ± sem.
Data set [1] can be described thus: Analysis of blood levels of Example 4 in study mice. Particulars: CD-1, whole blood, ip, mouse, 90 minutes after administration, n=3, mean [range], read-out: Blood concentration of Test Drug. The class given is in vivo. The method, then: Blood samples were collected from a subset of study mice (n=3) at the end of the behavioural measurement (90 minutes post-dose of test drug), and assayed using a method based on protein precipitation with acetonitrile followed by HPLC-MS/MS analysis with an optimized analytical method. Since the stability of the analyte in blood and brain was unknown, Calibration standards (CS) and Quality control samples (QC) were prepared on the day of dosing and stored together with study samples. Study samples, CS, QC and blanks were spiked with rolipram as internal standard (IS). Study samples were analyzed in discrete batches together with CS, QC and blank samples.

Data set [2] addresses T1, human Kv3.2 channels (hKv3.2) (Homo sapiens, UniProt Q96PR1).
T1 construct: expressed in transfected cells
T1 sequence (Q96PR1 1-638): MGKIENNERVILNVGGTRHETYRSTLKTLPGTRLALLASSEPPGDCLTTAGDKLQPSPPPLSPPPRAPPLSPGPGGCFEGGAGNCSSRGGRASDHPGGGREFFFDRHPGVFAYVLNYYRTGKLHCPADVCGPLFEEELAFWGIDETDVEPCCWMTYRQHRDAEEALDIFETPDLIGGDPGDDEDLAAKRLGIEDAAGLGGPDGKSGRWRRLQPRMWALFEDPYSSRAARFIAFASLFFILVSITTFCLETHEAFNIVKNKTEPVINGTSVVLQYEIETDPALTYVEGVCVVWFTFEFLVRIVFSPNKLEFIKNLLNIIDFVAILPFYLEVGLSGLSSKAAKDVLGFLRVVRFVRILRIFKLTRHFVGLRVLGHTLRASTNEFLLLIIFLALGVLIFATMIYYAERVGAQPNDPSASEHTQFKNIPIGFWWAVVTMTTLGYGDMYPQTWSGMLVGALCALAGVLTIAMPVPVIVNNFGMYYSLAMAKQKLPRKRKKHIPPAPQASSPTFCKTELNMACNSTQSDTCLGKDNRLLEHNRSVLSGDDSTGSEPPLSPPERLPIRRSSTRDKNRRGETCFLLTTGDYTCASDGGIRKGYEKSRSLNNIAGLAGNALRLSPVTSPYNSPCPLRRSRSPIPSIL
As to the kind of experiment: Biological Example 1: hKv3.2 whole-cell currents, IonWorks Quattro planar array electrophysiology. The class given is cell-based. Particulars: for Tauact mean: hKv3.2, -15 mV voltage step. The source says:
The ability of the compounds of the invention to modulate the voltage-gated potassium channel subtypes Kv3.2 or Kv3.1 may be determined using the following assay. Analogous methods may be used to investigate the ability of the compounds of the invention to modulate other channel subtypes, including Kv3.3 and Kv3.4.
To assess compound effects on human Kv3.2 channels (hKv3.2), a stable cell line expressing hKv3.2 was created by transfecting Chinese Hamster Ovary (CHO)-K1 cells with a pClH5-hKv3.2 vector. Cells were cultured in DMEM/F12 medium supplemented by 10% Foetal Bovine Serum, lx non-essential amino acids (Invitrogen) and 500 ug/ml of Hygromycin-B (Invitrogen). Cells were grown and maintained at 37° C. in a humidified environment containing 5% CO2 in air.
The day of the experiment, cells were removed from the incubator and the culture medium removed. Cells were washed with 5 ml of Dulbecco's PBS (DPBS) calcium and magnesium free and detached by the addition of 3 ml Versene (Invitrogen, Italy) followed by a brief incubation at 37° C. for 5 minutes. The flask was tapped to dislodge cells and 10 ml of DPBS containing calcium and magnesium was added to prepare a cell suspension. The cell suspension was then placed into a 15 ml centrifuge tube and centrifuged for 2 min at 1200 rpm. After centrifugation, the supernatant was removed and the cell pellet re-suspended in 4 ml of DPBS containing calcium and magnesium using a 5 ml pipette to break up the pellet. Cell suspension volume was then corrected to give a cell concentration for the assay of approximately 3 million cells per ml.
Experiments were conducted at room temperature using IonWorks Quattro™ planar array electrophysiology technology (Molecular Devices Corp.) with PatchPlate™ PPC. Stimulation protocols and data acquisition were carried out using a microcomputer (Dell Pentium 4). Planar electrode hole resistances (Rp) were determined by applying a 10 mV voltage step across each well. These measurements were performed before cell addition. […] Following this, amphotericin-B solution was added to the intracellular face of the electrode to achieve intracellular access. Cells were held at −70 mV. Leak subtraction was conducted in all experiments by applying 50 ms hyperpolarizing (10 mV) prepulses to evoke leak currents followed by a 20 ms period at the holding potential before test pulses. From the holding potential of −70 mV, a first test pulse to −15 mV was applied for 100 ms and following a further 100 ms at −70 mV, a second pulse to 40 mV was applied for 50 ms. Cells were then maintained for a further 100 ms at −100 mV and then a voltage ramp from −100 mV to 40 mV was applied over 200 ms. Test pulses protocol may be performed in the absence (pre-read) and presence (post-read) of the test compound. Pre- and post-reads may be separated by the compound addition followed by a 3 minute incubation.
The intracellular solution contained the following (in mM): K-gluconate 100, KCl 54, MgCl2 3.2, HEPES 5, adjusted to pH 7.3 with KOH. Amphotericin-B solution was prepared as […] stock solution in DMSO and diluted to a final working concentration of 0.1 mg/ml in intracellular solution.
Compounds of the invention (or reference compounds such as N-cyclohexyl-N-[(7,8-dimethyl-2-oxo-1,2-dihydro-3-quinolinyl)methyl]-N′-phenylurea were dissolved in dimethylsulfoxide (DMSO) at a stock concentration of 10 mM. These solutions were further diluted with DMSO using a Biomek FX
Each dilution (1 μL) was transferred to another compound plate and external solution containing 0.05% pluronic acid (66 μL) was added. 3.5 μL from each plate containing a compound of the invention was added and incubated with the cells during the lonWorks Quattro™ experiment. The final assay dilution was 200 and the final compound concentrations were in the range 50 μM to 50 nM.
In general terms: Patch clamp records ionic current or voltage across a cell membrane.

Data set [3] has as its system "fast-firing" interneurons in the somatosensory cortex. As to the kind of experiment: Recordings from identified fast-firing interneurons, trains of high frequency depolarising current pulses. The class given is cell-based, mouse. The conditions noted are these: 1 microM, n=6; trains of depolarising pulses at 100, 200, 300 Hz; p<0.05 vs no drug; listed as Reference Example 9. The source says: FIG. 2. Recordings made from identified “fast-firing” interneurons in the somatosensory cortex of the mouse.
Kv3.1 and Kv3.2 channels must activate and deactivate very rapidly in order to allow neurons to fire actions potentials at high frequency (Rudy and McBain, 2001, Trends in Neurosciences 24, 517-526). Slowing of activation is likely to delay the onset of action potential repolarisation; slowing of deactivation could lead to hyperpolarising currents that reduce the excitability of the neuron and delay the time before the neuron can fire a further action potential. Together these slowing effects on channel activation and deactivation are likely to lead to a reduction rather than a facilitation of the neurons ability to fire at high frequencies. Thus compounds that have this slowing effect on the Kv3.1 and/or Kv3.2 channels may slow neuronal firing.
The neurons are induced to fire at high frequencies by trains of high frequency depolarising current pulses at 100, 200, and 300 Hz. The ability of the neuron to fire an action potential on each pulse is determined. […] In the absence of drug (closed circles, n=9), the neurons maintained a spike probability of 1 up to 300 Hz.

Setting [4] is: compound 3.1 μM (concentration giving ~0.3 nA current at end of pulse).

Data on 7 compounds can be found in patent publication US10098881B2, “Compounds” (AUTIFONY THERAPEUTICS LIMITED, priority 2011, dated 2018).

Entries after “also recorded” stand apart in the source; their conditions may differ. Where two headings read alike, the source gives them in different places.

On to `CC(N)Cc1ccccc1` (stereo not drawn) [Amphetamine, amphetamine, reference compound], for which the “Locomotor activity (beam crosses)” value in the data set on Male CD-1 mice (amphetamine 2.0 mg/kg i.p. alone) stood at 16190 ± 2394 beam crosses. Besides, the total locomotor activity entry with Male CD-1 mice (amphetamine alone, 2 mg/kg i.p.) is “large and significant increase”.

For the compound `CN1CCN(C2=Nc3cc(Cl)ccc3Nc3ccccc32)CC1` [Clozapine, reference compound], in the data set with Male CD-1 mice (AMPH 2 mg/kg i.p. + clozapine i.p. 30 min before (positive control), p<0.001 vs amphetamine alone), the “Locomotor activity (beam crosses)” value is listed as 1546 ± 420 beam crosses.

Regarding `Cc1ccc(Oc2ncc(N3C(=O)NC(C)(C)C3=O)cn2)c2c1OCC21CC1` [Example 4, 5,5-dimethyl-3-[2-(7-methylspiro[2H-benzofuran-3,1′-cyclopropane]-4-yl)oxypyrimidin-5-yl]imidazolidine-2,4-dione], the concentration at 90 min came to 0.098 µg/mL in data set [1] (Example 4 3 mg/kg i.p.), 0.244 µg/mL in data set [1] (Example 4 10 mg/kg i.p.) and 2.14 µg/mL in data set [1] (Example 4 30 mg/kg i.p.). The “Locomotor activity (beam crosses)” value turned out to be 10263 ± 2443 beam crosses with Male CD-1 mice (AMPH 2 mg/kg i.p. + Example 4 3 mg/kg i.p. 30 min before); 9015 ± 1413 beam crosses in the data set with Male CD-1 mice (AMPH 2 mg/kg i.p. + Example 4 10 mg/kg i.p. 30 min before, p<0.05 vs amphetamine alone); 4555 ± 922 beam crosses in the data set with Male CD-1 mice (AMPH 2 mg/kg i.p. + Example 4 30 mg/kg i.p. 30 min before, p<0.001 vs amphetamine alone).

As for `CC[C@H]1NC(=O)N(c2ccc(Oc3ccc(C#N)cc3C3CC3)nc2)C1=O` [RE5, 3-cyclopropyl-4-({5-[(4R)-4-ethyl-2,5-dioxo-1-imidazolidinyl]-2-pyridinyl}oxy)benzonitrile, reference compound], in data set [2] (setting [4]), the Tauact mean was determined as 13.0 ms.

Consider `CC[C@H]1NC(=O)N(c2ccc(Oc3ccc(C#N)c(OC(F)(F)F)c3)nc2)C1=O` [RE7, 4-({5-[(4R)-4-ethyl-2,5-dioxo-1-imidazolidinyl]-2-pyridinyl}oxy)-2-[(trifluoromethyl)oxy]benzonitrile, reference compound], for which, in data set [2] (setting [4]), the Tauact mean is 10.4 ms.

Compound `CC[C@H]1NC(=O)N(c2ccc(Oc3ccc(C#N)c(OC(C)C)c3)nc2)C1=O` [RE8, 4-({5-[(4R)-4-ethyl-2,5-dioxo-1-imidazolidinyl]-2-pyridinyl}oxy)-2-[(1-methylethyl)oxy]benzonitrile, reference compound] came in with a Tauact mean in data set [2] (setting [4]) of 9.7 ms.

As for `CC[C@H]1NC(=O)N(c2ccc(Oc3cccc4c3C3(CC3)CO4)nc2)C1=O` [RE9, reference compound], the Tauact mean in data set [2] (compound 0.2 μM (concentration giving ~0.3 nA current at end of pulse)) was determined as 50.1 ms. Moreover, the Tauact in data set [2] (hKv3.2, each tested at a concentration that increased the Kv3.2 current to a similar level (~0.3 nA)) was 50.1 ± 7.5 ms. Also, the “ability of the neurons to fire on each pulse (spike probability)” value in data set [3] was “reduces the ability of the neurons to fire; also recorded: unable to follow trains at the highest frequency”.
